Assay results reported in patent US6339046B1, “Pyrazde herbicides” (Syngenta Investment Corporation, priority 1996, dated 2002).

Columns and labels:
Avena = experiment: Pre-emergence herbicidal action (Example B1); assay type: in vivo; settings: 500 g of a.i./ha, sprayed immediately after sowing, evaluated after 3 weeks, nine-step scale (1=complete damage, 9=no action)
Procedure: (§1) Herbicidal Action Before Emergence of the Plants (Pre-emergence Action)
(§2) Monocotyledoneous and dicotyledoneous test plants are grown in standard soil in plastic pots. Immediately after sowing, the test substances are sprayed on in the form of an aqueous suspension or emulsion, prepared from a 25% emulsion concentrate (Example F1, c)), which corresponds to a dosage of 500 g of a.i./ha (500 l of water/ha). The test plants are subsequently grown in the greenhouse under optimal conditions. After a test period of 3 weeks, the experiment is evaluated on a nine-step scale (1=complete damage, 9=no action). Score figures of 1 to 4 (in particular 1 to 3) denote a good to very good herbicidal action.
(§3) Test plants: Avena, Setaria, Solanum, Stellaria, Ipomoea.

Ipomoea [1] = experiment: Pre-emergence herbicidal action (Example B1); assay type: in vivo; settings: 500 g of a.i./ha, sprayed immediately after sowing, evaluated after 3 weeks, nine-step scale (1=complete damage, 9=no action)
Procedure: as §1, §2, §3

Setaria [2] = experiment: Pre-emergence herbicidal action (Example B1); assay type: in vivo; set-up: key: 1=complete damage; 9=no action; Score figures of 1 to 4 (in particular 1 to 3) denote a good to very good herbicidal action; settings: 500 g of a.i./ha, sprayed immediately after sowing, evaluated after 3 weeks, nine-step scale (1=complete damage, 9=no action)
Procedure: as §1, §2, §3

Solanum [3] = experiment: Pre-emergence herbicidal action (Example B1); assay type: in vivo; set-up: key: 1=complete damage; 9=no action; Score figures of 1 to 4 (in particular 1 to 3) denote a good to very good herbicidal action; settings: 500 g of a.i./ha, sprayed immediately after sowing, evaluated after 3 weeks, nine-step scale (1=complete damage, 9=no action)
Procedure: as §1, §2, §3

Stellaria [4] = experiment: Pre-emergence herbicidal action (Example B1); assay type: in vivo; set-up: key: 1=complete damage; 9=no action; Score figures of 1 to 4 (in particular 1 to 3) denote a good to very good herbicidal action; settings: 500 g of a.i./ha, sprayed immediately after sowing, evaluated after 3 weeks, nine-step scale (1=complete damage, 9=no action)
Procedure: as §1, §2, §3

Setaria [5] = experiment: Post-emergence herbicidal action (Example B2); assay type: in vivo; set-up: key: nine-step scale: 1 = complete damage, 9 = no action; settings: 500 g of a.i./ha, sprayed in the 4- to 6-leaf stage, evaluated after approximately 18 days, nine-step scale (1=complete damage, 9=no action)
Procedure: (§4) Post-emergence Herbicidal Action
(§5) In the greenhouse, monocotyledoneous and dicotyledoneous test plants are grown in standard soil in plastic pots and, in the 4- to 6-leaf stage, sprayed with an aqueous suspension or emulsion of the test substances of the formula I, prepared from a 25% emulsion concentrate (Example F1, c)), which corresponds to a dosage of 500 g of a.i./ha (500 l of water/ha). The test plants are subsequently grown on in the greenhouse under optimal conditions. After a test period of approximately 18 days, the experiment is evaluated on a nine-step scale (1=complete damage, 9=no action). Score figures of 1 to 4 (in particular 1 to 3) denote a good to very good herbicidal action.
(§6) Test plants: Setaria, Sinapis, Solanum, Stellaria, Ipomoea.

Ipomoea [6] = experiment: Post-emergence herbicidal action (Example B2); assay type: in vivo; set-up: key: 1=complete damage; 9=no action; Score figures of 1 to 4 (in particular 1 to 3) denote a good to very good herbicidal action; settings: 500 g of a.i./ha, sprayed in the 4- to 6-leaf stage, evaluated after approximately 18 days, nine-step scale (1=complete damage, 9=no action)
Procedure: as §4, §5, §6

Sinapis = experiment: Post-emergence herbicidal action (Example B2); assay type: in vivo; set-up: key: 1=complete damage; 9=no action; Score figures of 1 to 4 (in particular 1 to 3) denote a good to very good herbicidal action; settings: 500 g of a.i./ha, sprayed in the 4- to 6-leaf stage, evaluated after approximately 18 days, nine-step scale (1=complete damage, 9=no action)
Procedure: as §4, §5, §6

Solanum [7] = experiment: Post-emergence herbicidal action (Example B2); assay type: in vivo; set-up: key: 1=complete damage; 9=no action; Score figures of 1 to 4 (in particular 1 to 3) denote a good to very good herbicidal action; settings: 500 g of a.i./ha, sprayed in the 4- to 6-leaf stage, evaluated after approximately 18 days, nine-step scale (1=complete damage, 9=no action)
Procedure: as §4, §5, §6

Stellaria [8] = experiment: Post-emergence herbicidal action (Example B2); assay type: in vivo; set-up: key: 1=complete damage; 9=no action; Score figures of 1 to 4 (in particular 1 to 3) denote a good to very good herbicidal action; settings: 500 g of a.i./ha, sprayed in the 4- to 6-leaf stage, evaluated after approximately 18 days, nine-step scale (1=complete damage, 9=no action)
Procedure: as §4, §5, §6

melting point | SMILES | Pre-emergence action, score, test plant Avena (Avena) | Pre-emergence action, score, test plant Ipomoea (Ipomoea [1]) | Pre-emergence action, score, test plant Setaria (Setaria [2]) | Pre-emergence action, score, test plant Solanum (Solanum [3]) | Pre-emergence action, score, test plant Stellaria (Stellaria [4]) | Post-emergence action, score, test plant Setaria (Setaria [5]) | Post-emergence action, score, test plant Ipomoea (Ipomoea [6]) | Post-emergence action, score, test plant Sinapis (Sinapis) | Post-emergence action, score, test plant Solanum (Solanum [7]) | Post-emergence action, score, test plant Stellaria (Stellaria [8])
256 to 257 °C | C#CCOc1cc(-c2nn(C)c(C#N)c2C)c(Cl)cc1Cl [Comp. No. I3.027, 3-(2,4-dichloro-5-propargyloxyphenyl)-4-methyl-5-cyano-1-methyl-[1H]-pyrazole] | 6 | 6 | 1 | 1 | 2 |  |  |  |  | 
263 to 265 °C | Cc1c(-c2cc(O)c(Cl)cc2Cl)nn(C)c1C#N [Comp. No. I36.103, 3-(2,4-dichloro-5-hydroxyphenyl)-4-methyl-5-cyano-1-methyl-[1H]-pyrazole] |  |  |  |  |  |  |  |  |  | 
 | Cc1c(-c2ccc(Cl)cc2F)nn(C)c1C#N [I1, 001] |  |  |  |  |  | 3 | 1 | 4 | 2 | 5
 | COc1cc(-c2nn(C)c(C#N)c2C)c(F)cc1Cl [I1, 006] |  |  |  |  |  | 2 | 1 | 3 | 1 | 3
 | C#CCOc1cc(-c2nn(C)c(C#N)c2C)c(F)cc1Cl [I1, 027] |  |  |  |  |  | 3 | 1 | 3 | 1 | 1
 | Cc1c(-c2cc(CC(Cl)C(=O)OCc3ccccc3)c(Cl)cc2F)nn(C)c1C#N (centres unmarked) [I1, 122] |  |  |  |  |  | 4 | 1 | 1 | 1 | 1
 | Cc1c(-c2cc(C(=O)O)c(Cl)cc2F)nn(C)c1C#N [I1, 130] |  |  |  |  |  | 3 | 1 | 1 | 1 | 1
 | COC(=O)c1cc(-c2nn(C)c(C#N)c2C)c(F)cc1Cl [I1, 134] |  |  |  |  |  | 5 | 1 | 3 | 1 | 1
 | Cc1c(-c2cc(C(=O)OC(C)C)c(Cl)cc2F)nn(C)c1C#N [I1, 140] |  |  |  |  |  | 2 | 1 | 4 | 1 | 1
 | Cc1c(-c2cc(C(=O)OC(C)(C)C(=O)O)c(Cl)cc2F)nn(C)c1C#N [I1, 151] |  |  |  |  |  | 3 | 1 | 1 |  | 1
152 to 153 °C | Cc1c(-c2ccc(Cl)cc2F)nn(C)c1C#N [I1.001] | 4 | 3 | 1 | 1 | 6 |  |  |  |  | 
 | COc1cc(-c2nn(C)c(C#N)c2C)c(F)cc1Cl [I1.006] | 4 | 4 | 1 | 1 | 1 |  |  |  |  | 
145 to 146 °C | C#CCOc1cc(-c2nn(C)c(C#N)c2C)c(F)cc1Cl [I1.027] | 3 | 4 | 2 | 1 | 1 |  |  |  |  | 
 | Cc1c(-c2cc(C(=O)OC(C)C)c(Cl)cc2F)nn(C)c1C#N [I1.140] | 3 | 4 | 1 | 2 | 1 |  |  |  |  | 
 | C#CCOc1cc(-c2nn(C)c(C#N)c2C)c(Cl)cc1Cl [I3, 027] |  |  |  |  |  | 6 | 3 | 3 | 1 | 3
 | Cc1c(-c2ccc(Cl)cc2F)nn(C)c1C(N)=S [I5, 001] |  |  |  |  |  | 6 | 1 | 7 | 1 | 7
 | Cc1c(-c2ccc(Cl)cc2F)nn(C)c1C(N)=S [I5.001] | 6 | 6 | 1 | 1 | 7 |  |  |  |  | 
